# Measurements: US20260248766A1, “GLUCOKINASE ACTIVATOR FOR COGNITIVE DISORDERS AND NEURODEGENERATIVE DISEASES” (HUA MEDICINE (SHANGHAI) LTD., priority 2023, published 2026)
# How the values were obtained:
# Assay type in all cases: in vivo, rat
# GK rats [1] = experiment: Fasting blood glucose in GK rats under long-term treatment; settings: 8 mg/kg by gavage twice daily from six weeks of age, tested at weeks 6, 8, 12, 16, 20, 29, 31, FIG. 1
# Description: Goto-Kakizaki (GK) rats are a non-obese, spontaneously occurring type 2 diabetes rat model obtained through repeated inbreeding of Wistar rats with glucose tolerance at the upper limit over several generations. […] The hippocampus is a key functional brain region regulating learning and memory abilities. Due to the presence of progressive diabetes symptoms, typical neurodegenerative diseases, and memory deficits, GK rats can be used to evaluate the effects of a drug on preventing memory decline.
# (§1) GK rats were randomly divided into the following treatment groups: a GK rat-solvent treatment group (n=9) and a GK rat-Dorzagliatin (8 mg/kg) treatment group (n=8). Age-matched Wistar rats were used as the normal control group, i.e., the Wistar rat-solvent group (n=9). The treatment began at six weeks of age. The rats were administered either the solvent or Dorzagliatin by gavage twice daily, morning and evening. Peripheral blood was collected multiple times from the animals throughout the growth cycle, and the fasting blood glucose levels of the animals were tested (the fasting blood glucose levels of the three groups of rats were tested and analyzed at weeks 6, 8, 12, 16, 20, 29, and 31).
# [2] = test system: glucose transporter 1 (GLUT1); experiment: Western blot of GLUT1 in hippocampus of GK rats; settings: hippocampus of GK rats after long-term treatment; FIG. 8
# Description: (§2) The tissue sampling, protein extraction and quantification, preparation of the denaturated protein samples, and protein gel electrophoresis were completed successively using the steps (I) to (IV) of the above example 2.
# (§3) Then, the gel obtained from the electrophoresis was used for membrane transfer. Biomarkers GLUT1, GLUT3, and GAPDH were transferred to a membrane using a semi-dry transfer method. The membrane was assembled in the following order: negative electrode-filter paper-gel-PVDF membrane-filter paper-positive electrode. The membrane transfer was performed at a constant current of 0.2 A at room temperature for 65 minutes.
# (§4) After the membrane transfer was completed, the PVDF membranes (GLUT1, GLUT3, GAPDH) were blocked with non-fat milk at room temperature for 1 hour.
# (§5) Calculation of the relative expression level of a protein: The western blot images were quantified using an image processing software ImageJ, and the gray value of a target band was measured and used to characterize the protein expression level of the target band. The gray value of a target protein was divided by the gray value of the internal reference protein GAPDH to perform normalization, which characterized the relative expression level of the target band. Statistical analysis was performed on the normalized value of each target band.
# [3] = test system: ionotropic glutamate receptor subunit GluN2A; experiment: Western blot of GluN2A in hippocampus of GK rats; settings: hippocampus of GK rats after long-term treatment; FIG. 11
# Description: as §2
# (§6) Then, the gel obtained from the electrophoresis was used for membrane transfer. Biomarkers GluN2A and GluN2B were transferred to a membrane using a wet transfer method. The membrane was assembled in the following order: negative electrode-sponge-filter paper-gel-PVDF membrane-filter paper-sponge-positive electrode. The membrane transfer was performed at a constant voltage of 100 V in an ice bath for 70 minutes.
# (§7) After the membrane transfer was completed, the PVDF membranes were blocked with BSA or non-fat milk (GluN2A and GluN2B membranes were blocked with BSA, and GAPDH membrane was blocked with non-fat milk), respectively, at room temperature for 1 hour. […] The eluted PVDF membranes were scanned using an electrochemiluminescence (ECL) method with a contact-based non-destructive quantitative imaging instrument (E-blot) to give a western blot image.
# (§8) Calculation of the relative expression level of a protein: The western blot images were quantified using an image processing software ImageJ, and the gray value of a target band was measured and used to characterize the protein expression level of the target band. […]
# GK rats [4] = experiment: Morris water maze spatial memory test (probe test) in GK rats; settings: 8 mg/kg by gavage twice daily, about 27 weeks of treatment (33 weeks old), 1 minute probe test
# Experimental: as §1
# The Morris water maze test is a commonly used behavioral method to assess the spatial memory, working memory, and spatial discrimination abilities of rodents. […]
# Preparation of the experimental environment: The laboratory environment was kept quiet. […] During the test, the latent period of escape, swimming path (distance), speed, and quadrant preference of a rat were recorded using the ANY-maze system. […]
# Spatial memory test (probe test): The spatial memory test was performed 24 hours after the end of the training phase. […] The time spent in the original platform quadrant and the swimming distances were recorded, and the data of each group of animals were statistically analyzed.
# [5] = test system: insulin receptor isoform IR-A protein; experiment: Western blot of IR-A protein in hippocampus of GK rats; settings: hippocampus of GK rats after 37 weeks of treatment (43 weeks old); FIG. 5
# Experimental: (§9) GK rats were euthanized after 37 weeks of treatment, i.e., when the rats were 43 weeks old, and hippocampal tissue of the GK rats was collected for western blotting to detect the protein expression levels of the biomarkers.
# (§10) Animals under anesthesia were rapidly decapitated and their brains were removed in a hypothermic environment. The hippocampal tissue was separated on ice, placed in cryovials, flash-frozen in liquid nitrogen, and then stored in a −80° C. freezer for later use.
# (§11) • (1) The tissue homogenizer (TissueLyser II high-throughput tissue homogenizer, QIAGEN) was pre-cooled at −20° C. The hippocampal tissue was taken out from the −80° C. freezer. […]
# (§12) Based on the protein concentration determined in step (II), an appropriate amount of protein lysis buffer was added to adjust the protein concentration of each group to a suitable level. […]
# (§13) After the membrane transfer was completed, the PVDF membranes were blocked with non-fat milk at room temperature for 1 hour. […] The eluted PVDF membranes were scanned using an electrochemiluminescence (ECL) method with a contact-based non-destructive quantitative imaging instrument (E-blot) to give a western blot image. […]
# [6] = test system: insulin receptor isoform IR-B protein; experiment: Western blot of IR-B protein in hippocampus of GK rats; settings: hippocampus of GK rats after 37 weeks of treatment (43 weeks old); FIG. 6
# Experimental: as §9, §10, §11, §12, §13
# [7] = test system: glucose transporter 3 (GLUT3); experiment: Western blot of GLUT3 in hippocampus of GK rats; settings: hippocampus of GK rats after long-term treatment; FIG. 9
# Description: as §2, §3, §4, §5
# [8] = test system: ionotropic glutamate receptor subunit GluN2B; experiment: Western blot of GluN2B in hippocampus of GK rats; settings: hippocampus of GK rats after long-term treatment; FIG. 12
# Description: as §2, §6, §7, §8
smiles,measurement,setting,value
CC(C)C[C@@H](C(=O)Nc1ccn(C[C@@H](O)CO)n1)N1CC(Oc2ccccc2Cl)=CC1=O [Dorzagliatin],fasting blood glucose levels vs GK rat-solvent group,GK rats [1],significantly lower than those of the GK rat-solvent group
same,"normalized value of GLUT1 band (gray value / GAPDH, mean±SEM)",[2],1.67±0.06
same,"normalized value of GluN2A band (gray value / GAPDH, mean±SEM)",[3],1.05±0.07
same,time spent in the original platform quadrant (mean±SEM),GK rats [4]; FIG. 2,20.1 s
same,swimming distance in the original platform quadrant (mean±SEM),GK rats [4]; FIG. 3,4.21 m
same,"normalized value of IR-A protein band (gray value / GAPDH, mean±SEM)",[5],1.46±0.08
same,"normalized value of IR-B protein band (gray value / GAPDH, mean±SEM)",[6],1.64±0.06
same,"normalized value of GLUT3 band (gray value / GAPDH, mean±SEM)",[7],1.22±0.13
same,"normalized value of GluN2B band (gray value / GAPDH, mean±SEM)",[8],0.87±0.02
